Literature values, collected in US9415078B2 (priority 2011, dated 2016).
Several values for one entry are separate records, joined by “and”; a condition that tells them apart may be missing. Identical values can stand only once. Like-named read-outs stand apart in the source and are kept apart here.

Tested on: non squamous and squamous carcinoma of lung
Conditions: pemetrexed-based therapy, two comparisons

Nc1nc2[nH]cc(CCc3ccc(C(=O)N[C@@H](CCC(=O)O)C(=O)O)cc3)c2c(=O)[nH]1 [pemetrexed]
HR for survival versus the comparators (Non squamous patients): 0.78 and 0.84
HR for survival versus the comparators (squamous patients): 1.56 and 1.23
